Experimental data: patent publication US10227343B2, “Isoquiniline and napthalene-substituted compounds as mGluR4 allosteric potentiators, compositions, and methods of treating neurological dysfunction” (Vanderbilt University, priority 2015, dated 2019)

System: haloperidol induced catalepsy
Test: reversal of haloperidol induced catalepsy
Assay type: in vivo, Sprague-Dawley rats
Conditions: rats, haloperidol 1.5 mg/kg i.p., compound 0.1-56.6 mg/kg oral, tested 30 minutes after compound; data in FIG. 5
Description: Animals. Male Sprague-Dawley rats weighing between 275 and 300 g (Harlan Laboratories, Indianapolis, Ind.) were used for the behavioral studies and were maintained in accordance with American Association for the Accreditation of Laboratory Animal Care guidelines under a 12-h light/dark cycle (lights on at 6 AM, lights off at 6 PM) with free access to food and water. The experimental procedures, which were performed during the light cycle, were approved by the Institutional Animal Care and Use Committee of Vanderbilt University and conformed to the guidelines established by the National Research Council Guide for the Care and Use of laboratory Animals. Rats were injected with haloperidol (1.5 mg/kg, i.p., dissolved in 8.5% lactic acid, pH=6) 60 minutes prior to the oral administration of Example 46 ((0.1-56.6 mg/kg) or vehicle (10% Tween 80). 30 minutes after compound administration all rats were tested for catalepsy. Catalepsy was assessed using a horizontal bar placed 6 cm from the testing surface. The forepaws of each rat were placed gently on the bar with the body positioned at an angle of ˜45° to the testing surface. The latency in seconds required for the rat to remove one or both forepaws from the bar was manually measured with a cutoff of 30 seconds.

Compound: FC(F)(F)c1nccc2cc(Nc3n[nH]c4ncccc34)ccc12 [Example 46, N-(1H-pyrazolo[3,4-b]pyridin-3-yl)-1-(trifluoromethyl) isoquinolin-6-amine]
- reversal of haloperidol induced catalepsy: reversal of haloperidol induced catalepsy
